Measurements reported in patent EP0819124B1, “AZOLE COMPOUNDS WITH ANTIMYCOTIC ACTIVITY FOR HUMAN AND VETERINARY USE” (ZAMBON GROUP S.p.A., priority 1995, dated 1996).
Values after ≈ are worked out from the molar mass of the structure shown. Where two headings read alike, the source gives them in different places.

Experiments:
[1] = system: B. capitatus (1); experiment: In vitro antimycotic activity, strain panel (Table 2); assay type: cell-based; settings: Magnusiomyces capitatus; B. capitatus, 1 strain; single value under head MIC50 MIC90; read-out: MIC
Experimental: (§1) The determination of the activity inhibiting the growth of mycetes was evaluated by the macromethod of scalar brothdilutions in geometrical progression (M.R. McGinnis and M.G. Rinaldi, "Antifungal drugs: mechanisms of action, drug resistance, susceptibility testing and assay of activity in biological fluids", in Antibiotic in Laboratory Medicine, Ed. V. Lorian, Baltimora 1991).
(§2) As culture media Yeast Nitrogen Base broth (YNB) and Sabouraud Dextrose broth (SDB) were used for yeasts and moulds, respectively.
(§3) The results obtained in SDB (after incubation at 28°C for 7 days) were expressed as minimum inhibiting concentrations (MIC) the growth of mycetes, while those obtained in YNB (after incubation at 35°C for 48 hours) were expressed as concentrations able to inhibit at 50% (IC50) the growth of the yeast.
(§4) As reference compounds Fluconazole, Itraconazole and Genaconazole were used.
(§5) Note to the table: MIC expressed as µg/ml Within brackets the number of tested strains Table 3

[2] = system: C. neoformans (4); experiment: as above; assay type: cell-based; settings: Cryptococcus neoformans, C. neoformans, 4 strains; for MIC50: read-out: MIC50; for MIC90: read-out: MIC90
Experimental: as §1, §2, §3, §4, §5

[3] = system: C. spp * (5) (C. parapsilosis, lusitaniae, kefyr); experiment: as above; assay type: cell-based; settings: Lodderomyces parapsilosis, C. parapsilosis, lusitaniae, kefyr, 5 strains; for MIC50: read-out: MIC50; for MIC90: read-out: MIC90
Experimental: as §1, §2, §3, §4, §5

[4] = system: Trichosporon sp. (1); experiment: as above; assay type: cell-based; settings: Trichosporon sp., 1 strain; single value under head MIC50 MIC90; read-out: MIC
Experimental: as §1, §2, §3, §4, §5

[5] = system: C. tropicalis (2); experiment: as above; assay type: cell-based; settings: Candida tropicalis; C. tropicalis, 2 strains; single value or range printed under head MIC50 MIC90; read-out: MIC
Experimental: as §1, §2, §3, §4, §5

[6] = system: C. albicans (7); experiment: as above; assay type: cell-based; settings: Candida albicans, C. albicans, 7 strains; for MIC50: read-out: MIC50; for MIC90: read-out: MIC90
Experimental: as §1, §2, §3, §4, §5

[7] = system: C. krusei (2); experiment: as above; assay type: cell-based, Candida krusei; settings: Pichia kudriavzevii
Experimental: as §1, §2, §3, §4, §5

[8] = system: A. niger; experiment: In vitro antimycotic activity against recently isolated Aspergillus niger (Table 3); assay type: cell-based; settings: A. niger strain 94-6222; quantity and unit not given in Table 3
Experimental: as §1, §2, §3, §4

[9] = system: Fusarium sp; experiment: In vitro antimycotic activity against recently isolated Fusarium strains (Tables 2 and 3); assay type: cell-based; settings: for MIC: Fusarium; for In vitro antimycotic activity: quantity and unit not given in Table 3
Experimental: as §1, §2, §3, §4, §5

[10] = system: Candida albicans 1040; experiment: In vivo antimycotic activity in mice experimentally infected by C. albicans, oral route; set-up: species or system Charles River white mice (CD1 strain); settings: for % percentage of survival after day 3 / % percentage of survival after day 6: mice infected by C. albicans, dose 25 mg/kg/os; for PD50 at 8th day / PD50 at 14th day: oral route, probits analysis; for PD50 at 8th day: 8 days from the infection; for PD50 at 14th day: 14 days from the infection
Experimental: Charles River white mice (CD1 strain) weighing from 23 to 25 g, normo-feeded with standard diet and water ad libitum were used.
A suspension (0.2 ml containing 2.5x10^7 cells/ml) of Candida albicans 1040 in physiologic solution was injected to each animal by venous route. Immediately after the infection and after 4, 24 and 48 hours, the animals received by oral route (in arabic gum at 2%) doses increasing in a geometrical progression of the compound to be tested. The infected group was used as control.
The observation of the mortality of the mice was prolonged up to 14 days. From the number of survived animals for each concentration the average protective dose (DP50) was calculated by probits analysis (L.Lison - "Statistica applicata alla biologia sperimentale. La programmazione dell'esperimento e l'analisi dei risultati" - Casa Editrice Ambrosiana, 1961).
Compounds R1 and R2 were used as comparative compounds.
Fluconazole and Itraconazole were used as reference compounds.

[11] = system: C. albicans 1040; experiment: In vitro antimycotic activity, macromethod of scalar broth dilutions (YNB); assay type: cell-based, Candida albicans
Experimental: as §1, §2, §3, §4

[12] = system: C. neoformans; experiment: as above; assay type: cell-based; settings: Cryptococcus neoformans
Experimental: as §1, §2, §3, §4

[13] = system: T.mentagrophytes; experiment: In vitro antimycotic activity, macromethod of scalar broth dilutions (SDB); assay type: cell-based, Trychophyton mentagrophytes; settings: Trichophyton mentagrophytes, 168 h
Experimental: as §1, §2, §3, §4

[14] = system: A. fumigatus; experiment: as above; assay type: cell-based; settings: Aspergillus fumigatus, 168 h
Experimental: as §1, §2, §3, §4

[15] = system: C. glabrata (2); experiment: In vitro antimycotic activity, strain panel (Table 2); assay type: cell-based, Candida glabrata; settings: Nakaseomyces glabratus; C. glabrata, 2 strains; single value or range printed under head MIC50 MIC90; read-out: MIC
Experimental: as §1, §2, §3, §4, §5

[16] = C. krusei, 2 strains, range printed under head MIC50 MIC90, read-out: MIC
[17] = Candida albicans, C. albicans 1040, YNB, incubation at 35°C for 48 hours, read-out: IC50
[18] = C. neoformans, YNB, incubation at 35°C for 48 hours, read-out: IC50
[19] = T.mentagrophytes, SDB, incubation at 28°C for 7 days, read-out: MIC
[20] = A. fumigatus, SDB, incubation at 28°C for 7 days, read-out: MIC

| Structure (SMILES) | MIC [1] [mg/L] | MIC50 [2] [mg/L] | MIC90 [2] [mg/L] | MIC50 [3] [mg/L] | MIC90 [3] [mg/L] | MIC [4] [mg/L] | MIC [5] [mg/L] | MIC50 [6] [mg/L] | MIC90 [6] [mg/L] | MIC [9] [mg/L] | PD50 at 8th day [10] [mg/kg/os] | PD50 at 14th day [10] [mg/kg/os] | IC50 [11, 17] [mg/L] | IC50 [12, 18] [mg/L] | MIC [13, 19] [mg/L] | MIC [14, 20] [mg/L] | other results |
| --- | --- | --- | --- | --- | --- | --- | --- | --- | --- | --- | --- | --- | --- | --- | --- | --- | --- |
| C[C@H]([C@](O)(Cn1cncn1)c1ccc(F)cc1F)S(C)(=O)=O [Genaconazole, (2R,3R) α-(2,4-difluorophenyl)-α-[1-(methylsulfonyl)ethyl]-1H-1,2,4-triazol-1-ethanol, reference compound] | 16 (≈ 48.3 µM) | 8 (≈ 24.1 µM) | 16 (≈ 48.3 µM) | 0.5 (≈ 1.51 µM) | 1 (≈ 3.02 µM) | 32 (≈ 96.6 µM) | > 64 | 2 (≈ 6.04 µM) | 32 (≈ 96.6 µM) | 64 (≈ 193 µM) |  |  |  |  |  |  | MIC [7, 16]: 16 to 32 mg/L (≈ 48.3 to 96.6 µM); In vitro antimycotic activity [8]: 32; In vitro antimycotic activity ([9]; Fusarium sp strain 81-256): 64 |
| CCC(C)n1ncn(-c2ccc(N3CCN(c4ccc(OCC5COC(Cn6cncn6)(c6ccc(Cl)cc6Cl)O5)cc4)CC3)cc2)c1=O (stereo not drawn) [Itraconazole, reference compound] |  | ≤ 0.03 | 0.1 (≈ 0.142 µM) | ≤ 0.03 | 0.06 (≈ 0.085 µM) |  | 0.1 (≈ 0.142 µM) | 0.06 (≈ 0.085 µM) | 0.12 (≈ 0.17 µM) |  | 2.31 | >8 |  |  |  |  | MIC [7, 16]: 0.03 to 0.12 mg/L (≈ 0.0425 to 0.17 µM); % percentage of survival after day 3 [10]: 100%; % percentage of survival after day 6 [10]: 100%; In vitro antimycotic activity [8]: ≤0.03; In vitro antimycotic activity ([9]; Fusarium sp strain 81-256): 2; In vitro antimycotic activity ([9]; Fusarium sp strain 86-3369): 2-16; In vitro antimycotic activity ([9]; Fusarium sp strain 88-2116): 2-8; In vitro antimycotic activity ([9]; Fusarium sp strain 946301): 2-16 |
| OC(Cn1cncn1)(Cn1cncn1)c1ccc(F)cc1F [Fluconazole, reference compound] | 4 (≈ 13.1 µM) | 1 (≈ 3.27 µM) | 32 (≈ 104 µM) | 1 (≈ 3.27 µM) | 2 (≈ 6.53 µM) | 32 (≈ 104 µM) | 4 to 16 (≈ 13.1 to 52.2 µM) | 4 (≈ 13.1 µM) | 32 (≈ 104 µM) |  | 0.125 | 0.61 | 0.5 (≈ 1.63 µM) | 2 (≈ 6.53 µM) | 16 (≈ 52.2 µM) |  | MIC [14]: > 128 mg/L |
| CC(C)(COC(F)(F)C(F)F)C(O)(Cn1cncn1)c1ccc(Cl)cc1 (racemic) [Compound 3, (±)-1-(1H-1,2,4-triazolyl)-2-hydroxy-2-(4-chlorophenyl)-3,3-dimethyl-4-(1,1,2,2-tetrafluoroethoxy)butane] | 0.06 (≈ 0.152 µM) | ≤ 0.03 | 0.5 (≈ 1.26 µM) | ≤ 0.03 | ≤ 0.03 | 0.12 (≈ 0.303 µM) | 0.5 (≈ 1.26 µM) | ≤ 0.03 | 2 (≈ 5.05 µM) | 16 to 64 (≈ 40.4 to 162 µM) | 0.49 | 1.3 | 0.0625 (≈ 0.158 µM) | 0.0625 (≈ 0.158 µM) | 1 (≈ 2.53 µM) | > 128 | MIC [15]: 0.5 to 2 mg/L (≈ 1.26 to 5.05 µM); MIC [7]: 0.03 to 0.5 mg/L (≈ 0.0758 to 1.26 µM); % percentage of survival after day 3 [10]: 100%; % percentage of survival after day 6 [10]: 100% |
| CC(C)(COC(F)(F)C(F)F)C(O)(Cn1cncn1)c1ccc(F)cc1F (racemic) [Compound 5] | 0.06 (≈ 0.151 µM) | ≤ 0.03 | ≤ 0.03 | ≤ 0.03 | ≤ 0.03 | ≤ 0.03 | 0.12 (≈ 0.302 µM) | ≤ 0.03 | 0.5 (≈ 1.26 µM) | 0.25 (≈ 0.629 µM) | 0.50 | 1.14 | 0.0156 (≈ 0.0393 µM) | 0.0156 (≈ 0.0393 µM) | 0.25 (≈ 0.629 µM) | 8 (≈ 20.1 µM) | MIC [15]: 0.12 mg/L (≈ 0.302 µM); MIC50 [7]: ≤ 0.03 mg/L; MIC90 [7]: 0.12 mg/L (≈ 0.302 µM) |
| CCC(COC(F)(F)C(F)F)C(O)(Cn1cncn1)c1ccc(F)cc1F (racemic) [Compound 7, (±)-1-(1H-1,2,4-triazolyl)-2-hydroxy-2-(2,4-difluorophenyl)-3-ethyl-4-(1,1,2,2-tetrafluoroethoxy)butane nitrate] |  |  |  |  |  |  |  |  |  |  | 1.5 | 2.19 |  |  |  |  | IC50 ([11]; Candida albicans, 1040, 48 h): 0.0312 mg/L; IC50 ([12]; 48 h): 0.125 mg/L; MIC [13]: 0.5 mg/L; MIC [14]: 16 mg/L |
| CC(COC(F)(F)C(F)F)C(O)(Cn1cncn1)c1ccc(Cl)cc1 (racemic) [Compound 4, (±)-1-(1H-1,2,4-triazolyl)-2-hydroxy-2-(4-chlorophenyl)-3-methyl-4-(1,1,2,2-tetrafluoroethoxy)butane] |  |  |  |  |  |  |  |  |  |  | 0.31 | 1.29 | 0.0312 (≈ 0.0817 µM) | 0.5 (≈ 1.31 µM) | 4 (≈ 10.5 µM) | > 128 |  |
